What all share (assay): MIC alone and MIC of colistin in combination with DNM compounds
What all share (format): cell-based

The subject of one assay is A. baumannii ATCC 19606. Particulars: compound alone. The protocol: (§1) The medium employed for the assay was Mueller Hinton II Broth (MHB II; Becton-Dickinson, Sparks, MD, USA). Agar plates used for the organisms were trypticase soy agar plus 5% sheep blood (BD; Sparks, MD, USA). MIC assay plates were prepared using the CLSI broth microdilution procedure. Automated liquid handlers (Multidrop 384, Biomek 2000 and Biomek FX) were used to conduct serial dilutions and liquid transfers. A standardized inoculum of each organism was prepared per CLSI methods. Suspensions were prepared to equal a 0.5 McFarland standard, followed by a 1:20 dilution in test media. The inocula were dispensed into sterile reservoirs divided by length (Beckman Colter) and the Biomek 2000 was used to inoculate the plates. Daughter plates were placed on the Biomek 2000 work surface in reverse orientation so that inoculation took place from low to high drug concentration. The Biomek 2000 delivered 10 μL of the diluted suspension into each well. These inoculations yielded a final cell concentration in the daughter plates of ~5 × 10^5 colony-forming units/mL in each well. The wells of the daughter plates ultimately contained 185 μL of broth, 5 μL of drug solution, and 10 μL of bacterial inoculum. Plates were covered with a sterile lid on the top plate, placed in plastic bags, and incubated at 35 °C for ~18 h. The microplates were viewed from the bottom using a plate viewer and the MIC was read. The MIC was recorded as the lowest concentration of drug that inhibited visible growth of the organism. Uninoculated solubility control plates were also observed for evidence of drug precipitation.
(§2) Compound K. pneumoniae A. baumannii E. coli P. aeruginosa […]
(§3) Supplementary Table 3. Minimum inhibitory concentration (MIC; µg/ml) of DNM
(§4) compounds that show potential synergy in combination with colistin. […]

In a further assay the test system is E. coli ATCC 25922. Conditions: compound alone, bracket after colistin value is a range (0.25-2). How it is done: as §1, §2, §3, §4
The subject of the next assay is K. pneumoniae MMX8390. Conditions: compound alone. How it is done: as §1, §2, §3, §4
Another assay deals with P. aeruginosa ATCC 27853. Conditions: compound alone, bracket after colistin value is a range (0.25-4). How it is done:
as §1, §2, §3, §4

Some results are limits rather than exact numbers.

For colistin [reference compound], the MIC (commonly the lowest concentration that inhibits growth of the organism) in the assay on A. baumannii ATCC 19606 amounted to 0.25 µg/mL; with E. coli ATCC 25922, 0.25 µg/mL; with K. pneumoniae MMX8390, 16 µg/mL; in the assay on P. aeruginosa ATCC 27853 it was 0.25 µg/mL.
With `CC(C)c1cc(Cl)ccc1-c1cc(C(N)=O)sc1-c1ccc(Cl)cc1C(C)C` [DNM0650], the minimum inhibitory concentration (MIC) with A. baumannii ATCC 19606, in the assay on E. coli ATCC 25922, in the assay with K. pneumoniae MMX8390 and in the assay with P. aeruginosa ATCC 27853 was more than 64 µg/mL throughout.
